# Measurements published in PubChem BioAssay (NCI).
#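 Exposure lasted 48 hours, with cells grown in 96-well plates and compounds tested at five concentrations. TGI denotes the concentration required for complete inhibition of growth.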
# Key:
# Assay in all cases: inhibition of tumour cell growth, NCI panel, 48 h
# OVCAR-3 ovarian = test system: OVCAR-3 ovarian
# HL-60(TB) leukemia = test system: HL-60(TB) leukemia
# MDA-N = test system: MDA-N
# UO-31 renal = test system: UO-31 renal
# ACHN renal = test system: ACHN renal
# NCI-H522 lung = test system: NCI-H522 lung
# SK-MEL-5 melanoma = test system: SK-MEL-5 melanoma
# SN12C renal = test system: SN12C renal
# SR leukemia = test system: SR leukemia
# A498 renal = test system: A498 renal
# EKVX NSCLC = test system: EKVX NSCLC
# OVCAR-5 ovarian = test system: OVCAR-5 ovarian
# NCI-H460 lung = test system: NCI-H460 lung
# MDA-MB-231 breast = test system: MDA-MB-231 breast
# RXF 393 renal = test system: RXF 393 renal
# T-47D breast = test system: T-47D breast
# PC-3 prostate = test system: PC-3 prostate
# HOP-92 NSCLC = test system: HOP-92 NSCLC
# SF-295 CNS = test system: SF-295 CNS
# DU-145 prostate = test system: DU-145 prostate
# NCI-H23 lung = test system: NCI-H23 lung
# COLO 205 colon = test system: COLO 205 colon
# MOLT-4 leukemia = test system: MOLT-4 leukemia
# BT-549 breast = test system: BT-549 breast
# HT29 colon = test system: HT29 colon
# SK-MEL-2 melanoma = test system: SK-MEL-2 melanoma
# K-562 leukemia = test system: K-562 leukemia
# KM12 colon = test system: KM12 colon
# HS 578T breast = test system: HS 578T breast
# HCT-116 colon = test system: HCT-116 colon
# MDA-MB-435 = test system: MDA-MB-435
# HCT-15 colon = test system: HCT-15 colon
# M14 melanoma = test system: M14 melanoma
# SK-OV-3 ovarian = test system: SK-OV-3 ovarian
# MCF7 breast = test system: MCF7 breast
# 786-0 renal = test system: 786-0 renal
# OVCAR-4 ovarian = test system: OVCAR-4 ovarian
# NCI-H226 lung = test system: NCI-H226 lung
# A549 NSCLC = test system: A549 NSCLC
# UACC-62 melanoma = test system: UACC-62 melanoma
# HOP-62 NSCLC = test system: HOP-62 NSCLC
# MALME-3M melanoma = test system: MALME-3M melanoma
# TK-10 renal = test system: TK-10 renal
# SNB-19 CNS = test system: SNB-19 CNS
# RPMI-8226 leukemia = test system: RPMI-8226 leukemia
# SK-MEL-28 melanoma = test system: SK-MEL-28 melanoma
# CAKI-1 renal = test system: CAKI-1 renal
# CCRF-CEM leukemia = test system: CCRF-CEM leukemia
# IGROV1 ovarian = test system: IGROV1 ovarian
# U251 CNS = test system: U251 CNS
# OVCAR-8 ovarian = test system: OVCAR-8 ovarian
# HCC-2998 colon = test system: HCC-2998 colon
# SW-620 colon = test system: SW-620 colon
# NCI/ADR-RES ovarian = test system: NCI/ADR-RES ovarian
# SNB-75 CNS = test system: SNB-75 CNS
# LOX IMVI melanoma = test system: LOX IMVI melanoma
# SF-268 CNS = test system: SF-268 CNS
# SF-539 CNS = test system: SF-539 CNS
# UACC-257 melanoma = test system: UACC-257 melanoma
smiles,measurement,setting,value
Cc1cc(C)c2c(=O)n(CN3CCC(O)(c4ccccc4)CC3)sc2n1,TGI,OVCAR-3 ovarian,> 100 µM
same,TGI,HL-60(TB) leukemia,62.3 µM
same,TGI,MDA-N,38.3 µM
same,TGI,UO-31 renal,33.8 µM
same,TGI,ACHN renal,37.9 µM
same,TGI,NCI-H522 lung,24.2 µM
same,TGI,SK-MEL-5 melanoma,> 100 µM
same,TGI,SN12C renal,86.2 µM
same,TGI,SR leukemia,82.8 µM
same,TGI,A498 renal,> 100 µM
same,TGI,EKVX NSCLC,81.7 µM
same,TGI,OVCAR-5 ovarian,68.7 µM
same,TGI,NCI-H460 lung,95.3 µM
same,TGI,MDA-MB-231 breast,> 100 µM
same,TGI,RXF 393 renal,37.7 µM
same,TGI,T-47D breast,> 100 µM
same,TGI,PC-3 prostate,> 100 µM
same,TGI,HOP-92 NSCLC,> 100 µM
same,TGI,SF-295 CNS,> 100 µM
same,TGI,DU-145 prostate,> 100 µM
same,TGI,NCI-H23 lung,83.1 µM
same,TGI,COLO 205 colon,> 100 µM
same,TGI,MOLT-4 leukemia,76.3 µM
same,TGI,BT-549 breast,> 100 µM
same,TGI,HT29 colon,98.9 µM
same,TGI,SK-MEL-2 melanoma,> 100 µM
same,TGI,K-562 leukemia,> 100 µM
same,TGI,KM12 colon,> 100 µM
same,TGI,HS 578T breast,> 100 µM
same,TGI,HCT-116 colon,> 100 µM
same,TGI,MDA-MB-435,48.7 µM
same,TGI,HCT-15 colon,> 100 µM
same,TGI,M14 melanoma,> 100 µM
same,TGI,SK-OV-3 ovarian,> 100 µM
same,TGI,MCF7 breast,> 100 µM
same,TGI,786-0 renal,30.8 µM
same,TGI,OVCAR-4 ovarian,81.4 µM
same,TGI,NCI-H226 lung,> 100 µM
same,TGI,A549 NSCLC,> 100 µM
same,TGI,UACC-62 melanoma,> 100 µM
same,TGI,HOP-62 NSCLC,> 100 µM
same,TGI,MALME-3M melanoma,32.9 µM
same,TGI,TK-10 renal,29.8 µM
same,TGI,SNB-19 CNS,> 100 µM
same,TGI,RPMI-8226 leukemia,> 100 µM
same,TGI,SK-MEL-28 melanoma,> 100 µM
same,TGI,CAKI-1 renal,> 100 µM
same,TGI,CCRF-CEM leukemia,> 100 µM
same,TGI,IGROV1 ovarian,> 100 µM
same,TGI,U251 CNS,> 100 µM
same,TGI,OVCAR-8 ovarian,> 100 µM
same,TGI,HCC-2998 colon,57.3 µM
same,TGI,SW-620 colon,69.5 µM
same,TGI,NCI/ADR-RES ovarian,> 100 µM
same,TGI,SNB-75 CNS,50.8 µM
same,TGI,LOX IMVI melanoma,> 100 µM
same,TGI,SF-268 CNS,> 100 µM
same,TGI,SF-539 CNS,58.3 µM
Cn1c2ccccc2c(=NNc2ccccc2C(=O)O)c2ccccc21,TGI,OVCAR-3 ovarian,28.5 µM
same,TGI,HL-60(TB) leukemia,44.5 µM
same,TGI,MDA-N,46.4 µM
same,TGI,UO-31 renal,64.5 µM
same,TGI,ACHN renal,48.2 µM
same,TGI,NCI-H522 lung,33.3 µM
same,TGI,SK-MEL-5 melanoma,28 µM
same,TGI,SN12C renal,83.1 µM
same,TGI,SR leukemia,44.6 µM
same,TGI,EKVX NSCLC,38 µM
same,TGI,OVCAR-5 ovarian,85 µM
same,TGI,NCI-H460 lung,39.7 µM
same,TGI,MDA-MB-231 breast,59.1 µM
same,TGI,RXF 393 renal,33.3 µM
same,TGI,T-47D breast,88.3 µM
same,TGI,PC-3 prostate,42.3 µM
same,TGI,HOP-92 NSCLC,67.6 µM
same,TGI,SF-295 CNS,82.6 µM
same,TGI,DU-145 prostate,> 100 µM
same,TGI,NCI-H23 lung,76.8 µM
same,TGI,COLO 205 colon,34.1 µM
same,TGI,MOLT-4 leukemia,> 100 µM
same,TGI,BT-549 breast,61 µM
same,TGI,HT29 colon,38.1 µM
same,TGI,SK-MEL-2 melanoma,43.7 µM
same,TGI,K-562 leukemia,28.5 µM
same,TGI,UACC-257 melanoma,51.5 µM
same,TGI,KM12 colon,42.2 µM
same,TGI,HS 578T breast,83.1 µM
same,TGI,HCT-116 colon,37.7 µM
same,TGI,MDA-MB-435,39.6 µM
same,TGI,HCT-15 colon,27.5 µM
same,TGI,M14 melanoma,53.5 µM
same,TGI,SK-OV-3 ovarian,71.1 µM
same,TGI,MCF7 breast,30.5 µM
same,TGI,786-0 renal,> 100 µM
same,TGI,OVCAR-4 ovarian,44.9 µM
same,TGI,NCI-H226 lung,45.8 µM
same,TGI,A549 NSCLC,77.2 µM
same,TGI,UACC-62 melanoma,54 µM
same,TGI,HOP-62 NSCLC,75.4 µM
same,TGI,MALME-3M melanoma,43.7 µM
same,TGI,TK-10 renal,75.2 µM
same,TGI,SNB-19 CNS,> 100 µM
same,TGI,RPMI-8226 leukemia,53.3 µM
same,TGI,SK-MEL-28 melanoma,57.5 µM
same,TGI,CAKI-1 renal,91.2 µM
same,TGI,CCRF-CEM leukemia,72 µM
same,TGI,IGROV1 ovarian,94.3 µM
same,TGI,U251 CNS,34.6 µM
same,TGI,OVCAR-8 ovarian,66.2 µM
same,TGI,HCC-2998 colon,46.8 µM
same,TGI,SW-620 colon,84.8 µM
same,TGI,NCI/ADR-RES ovarian,60.8 µM
same,TGI,SNB-75 CNS,67 µM
same,TGI,LOX IMVI melanoma,25.6 µM
same,TGI,SF-268 CNS,56.3 µM
same,TGI,SF-539 CNS,36.1 µM
